Test results: ChEMBL document CHEMBL6078680, “Improving the Stability and Anti-Infective Activity of Sea Turtle AMPs Using Multiple Structural Modification Strategies” (J Med Chem, 2024)
Activity calls are given as the source filed them. The calls are words filed in the database; no cut-off is given here. Positions of bridges follow the written chain, without caps; N, C: chain ends. Non-standard residues stand in square brackets, D forms with d. Residues, ends and D or L forms follow the SMILES beside them. Orn = NCCC[C@H](N)C(=O)O

Assays:
[1] = system: Clostridium perfringens; experiment: Antimicrobial activity against Clostridium perfringens ATCC 13124 assessed as reduction in microbial growth incubated for 18 hrs by broth microdilution method; type: functional
[2] = system: Acinetobacter baumannii; experiment: In vivo antibacterial activity against Acinetobacter baumannii ATCC19606 infected in BALB/c mouse assessed as reduction in bacterial load in kidney at 15 mg/kg, ip measured after 3 hrs; type: functional, organism-based
[3] = system: Cell membrane; experiment: Induction of outer membrane permeabilization in Escherichia coli ATCC 25922 at 5 times MIC measured for 1 hr by NPN-dye based fluorescence analysis; type: subcellular
[4] = system: Staphylococcus aureus; experiment: Antibiofilm activity against Staphylococcus aureus CMCC 26003 assessed as reduction in biofilm formation at 0.5 times MIC incubated for 24 hrs by crystal violet staining based analysis; type: functional; parameters: scale not given: the % may be the effect or the level left
[5] = system: Acinetobacter baumannii; experiment: Antipersister-activity against Acinetobacter baumannii ATCC 19606 assessed as elimination of persister cells at 8 times MIC preincubated adherent persistent cells with colistin incubation for 24 hrs; type: functional
[6] = system: Staphylococcus aureus; experiment: Antimicrobial activity against Staphylococcus aureus CMCC 26003 assessed as reduction in microbial growth incubated for 18 hrs by broth microdilution method; type: functional
[7] = Acute toxicity in BALB/c mouse assessed as mortality at 20 mg/kg, iv measured for 24 hrs; type: organism-based; details: in vivo, read-out: Activity
[8] = Acute toxicity in BALB/c mouse assessed as mortality at 15 mg/kg, iv measured for 24 hrs; type: organism-based; details: in vivo, read-out: Activity
[9] = system: Staphylococcus aureus; experiment: Antibiofilm activity against Staphylococcus aureus CMCC 26003 assessed as biofilm eradication at 8 times MIC incubated for 24 hrs by crystal violet staining based analysis; type: functional
[10] = system: Acinetobacter baumannii; experiment: In vivo antibacterial activity against Acinetobacter baumannii ATCC19606 infected in BALB/c mouse assessed as reduction in bacterial load in lung at 15 mg/kg, ip measured after 3 hrs; type: functional, organism-based
[11] = biological target: T1, Trypsin (Homo sapiens, UniProt P07477+P07478+P35030); experiment: Stability of compound assessed as trypsin (unknown origin) mediated drug degradation […] measured at 24 hrs by RP-HPLC analysis; type: ADME, protein assay; details: read-out: Activity
[12] = system: Enterococcus faecalis; experiment: Antimicrobial activity against Enterococcus faecalis ATCC 29217 assessed as reduction in microbial growth incubated for 18 hrs by broth microdilution method; type: functional
[13] = system: Salmonella enteritidis; experiment: Antimicrobial activity against Salmonella enterica subsp. enterica serovar Enteritidis ATCC 14028 assessed as reduction in microbial growth incubated for 18 hrs by broth microdilution method; type: functional
[14] = system: Escherichia coli; experiment: Antimicrobial activity against Escherichia coli ATCC 25922 measured at 8 hrs in presence of mouse serum; type: functional, organism-based
[15] = system: Acinetobacter baumannii; experiment: Antibiofilm activity against Acinetobacter baumannii ATCC 19606 assessed as inhibition of biofilm formation at 4 to 8 times MIC incubated for 48 hrs by crystal violet staining based analysis; type: functional
[16] = system: Escherichia coli; experiment: Antibacterial activity against Escherichia coli ATCC 25922 at 1 times MIC in presence of 25 microg/ml exogenous DNA; type: functional, organism-based
[17] = system: Cell membrane; experiment: Induction of cell membrane permeabilization in Escherichia coli ATCC 25922 at 2 times MIC measured for 1 hr by propidium iodide dye-based fluorescence assay; type: subcellular
[18] = system: Acinetobacter baumannii; experiment: Antimicrobial activity against Acinetobacter baumannii ATCC 19606 assessed as fold increase in MIC incubated for 18 hrs in presence of phosphatidylglycerol; type: functional
[19] = system: Escherichia coli; experiment: Antimicrobial activity against Escherichia coli ATCC 25922 assessed as fold increase in MIC measured at 8 hrs in presence of mouse serum; type: functional
[20] = system: Escherichia coli; experiment: Antimicrobial activity against Escherichia coli ATCC 25922 assessed as fold increase in MIC incubated for 18 hrs in presence of cardiolipin; type: functional
[21] = system: Acinetobacter baumannii; experiment: Antimicrobial activity against Acinetobacter baumannii ATCC 19606 assessed as fold increase in MIC incubated for 18 hrs in presence of cardiolipin; type: functional
[22] = system: Escherichia coli; experiment: Bactericidal activity against Escherichia coli ATCC 25922 at 5 times MIC measured within 120 mins; type: functional, organism-based
[23] = system: Staphylococcus aureus; experiment: Antimicrobial activity against Staphylococcus aureus CMCC 26003 assessed as fold increase in MIC measured at 8 hrs in presence of mouse serum; type: functional
[24] = system: RAW264.7; experiment: Cytotoxicity against mouse RAW264.7 cells upto 200 microg/ml by MTT assay; type: toxicity, cell-based; details: dose < 200 µg/ml
[25] = system: Staphylococcus aureus; experiment: Antimicrobial activity against Staphylococcus aureus CMCC 26003 assessed as bacterial eradication at 5 times MIC measured within 120 mins; type: functional, organism-based
[26] = system: Escherichia coli; experiment: Antimicrobial activity against Escherichia coli ATCC 25922 assessed as fold increase in MIC incubated for 18 hrs in presence of phosphatidylglycerol; type: functional
[27] = system: Cell membrane; experiment: Induction of cell membrane permeabilization in Escherichia coli ATCC 25922 by propidium iodide dye-based fluorescence assay; type: subcellular
[28] = system: Escherichia coli; experiment: Antimicrobial activity against Escherichia coli ATCC 25922 assessed as bacterial eradication at 5 times MIC measured within 30 mins; type: functional, organism-based
[29] = system: Staphylococcus aureus; experiment: Antibiofilm activity against Staphylococcus aureus CMCC 26003 assessed as reduction in biofilm formation at 0.5 to 8 times MIC incubated for 24 hrs by crystal violet staining based analysis; type: functional; parameters: scale not given: the % may be the effect or the level left
[30] = system: Staphylococcus aureus; experiment: Antimicrobial activity against Staphylococcus aureus CMCC 26003 incubated for 18 hrs in presence of CCCP; type: functional, organism-based
[31] = Acute toxicity in BALB/c mouse assessed as effect on BUN level at 10 mg/kg, iv measured for 24 hrs; type: organism-based; details: in vivo
[32] = system: Escherichia coli; experiment: Antimicrobial activity against Escherichia coli ATCC 25922 incubated for 18 hrs in presence of CCCP; type: functional, organism-based
[33] = system: Peritoneal macrophage; experiment: Cytotoxicity against mouse Peritoneal macrophage cells assessed as survival rate at 100 microg/ml; type: functional; details: read-out: Survival
[34] = system: HaCaT; experiment: Cytotoxicity against human HaCaT cells assessed as survival rate at 100 microg/ml; type: functional; details: read-out: Survival
[35] = system: Acinetobacter baumannii; experiment: Antimicrobial activity against Acinetobacter baumannii ATCC 19606 assessed as fold increase in MIC incubated for 18 hrs in presence of LPS; type: functional
[36] = system: Cell membrane; experiment: Induction of […] membrane permeabilization in Escherichia coli ATCC 25922 at 5 times MIC measured for 1 hr by NPN-dye based fluorescence analysis; type: subcellular
[37] = system: Escherichia coli; experiment: Antimicrobial activity against Escherichia coli ATCC 25922 assessed as fold increase in MIC incubated for 18 hrs in presence of LPS; type: functional
[38] = biological target: T1, Trypsin; experiment: Stability of compound assessed as trypsin (unknown origin) mediated drug degradation […] measured at 6 hrs by RP-HPLC analysis; type: ADME, protein assay; details: read-out: Activity
[39] = system: Cell membrane; experiment: Induction of cell membrane permeabilization in Staphylococcus aureus CMCC 26003 at 5 times MIC measured for 1 hr by propidium iodide dye-based fluorescence assay; type: subcellular
[40] = system: Acinetobacter baumannii; experiment: In vivo antibacterial activity against Acinetobacter baumannii ATCC19606 infected in BALB/c mouse assessed as reduction in bacterial load in abdominal cavity at 15 mg/kg, ip measured after 12 hrs; type: functional, organism-based
[41] = system: Acinetobacter baumannii; experiment: Antipersister-activity against Acinetobacter baumannii ATCC 19606 assessed as elimination of persister cells at 4 times MIC preincubated adherent persistent cells with colistin incubation for 24 hrs; type: functional

Row | SMILES | MIC [1] [µg/mL] | Activity [2] | Activity [3] [%] | Activity [4] [%] | MIC [6] [µg/mL] | mortality at 24 h [7] [%] | mortality at 24 h [8] [%] | Activity [9] [%] | Activity [10] | metabolised at 24 h [11] [%] | MIC [12] [µg/mL] | MIC [13] [µg/mL] | inhibition (INH) [15] [%] | Activity [16] | Activity [17] [%] | fold change (FC) [18] | fold change (FC) [20] | fold change (FC) [21] | Activity [24] | Activity [31] | also measured
1 | CC[C@H](C)[C@H](NC(=O)[C@@H](CCCNC(=N)N)NC(=O)[C@H](CO)NC(=O)[C@H](Cc1c[nH]cn1)NC(=O)[C@@H](CCCNC(=N)N)NC(=O)[C@H](CC(C)C)NC(=O)[C@@H](NC(=O)[C@@H](CCCNC(=N)N)NC(=O)CNC(=O)[C@H](CC(C)C)NC(=O)[C@H](CCC(N)=O)NC(=O)[C@@H](CCCCN)NC(=O)[C@@H](CCCNC(=N)N)NC(=O)[C@@H](NC(=O)[C@@H](CCCCN)NC(=O)[C@@H](CCCCN)NC(=O)[C@@H](N)Cc1ccccc1)C(C)C)C(C)C)C(=O)N[C@H](C(=O)N[C@H](C(=O)NCC(=O)NCC(=O)N[C@H](CCCNC(=N)N)C(=O)N[C@@H](CCSC)C(=O)N[C@H](CCCNC(=N)N)C(=O)N[C@@H](Cc1ccccc1)C(=O)O)C(C)C)[C@@H](C)O | 18.8 | Active | 100 | 20 | 75 | 33 | 0 | 50 | Active | < 60 | 37.5 | 37.5 | 80 | inactive |  |  |  |  |  |  | Activity [5]: 97.1%; Activity [14]: inactive
2 | CC[C@H](C)[C@H](NC(=O)[C@H](CCCNC(=N)N)NC(=O)[C@H](CO)NC(=O)[C@H](Cc1c[nH]cn1)NC(=O)[C@H](CCCNC(=N)N)NC(=O)[C@H](CC(C)C)NC(=O)[C@@H](NC(=O)[C@H](CCCNC(=N)N)NC(=O)CNC(=O)[C@H](CC(C)C)NC(=O)[C@H](CCC(N)=O)NC(=O)[C@H](CCCCN)NC(=O)[C@H](CCCNC(=N)N)NC(=O)[C@@H](NC(=O)[C@H](CCCCN)NC(=O)[C@H](CCCCN)NC(=O)[C@@H](N)Cc1ccccc1)C(C)C)C(C)C)C(=O)N[C@H](C(=O)N[C@H](C(=O)NCC(=O)NCC(=O)N[C@@H](CCCNC(=N)N)C(=O)N[C@@H](CCSC)C(=O)N[C@@H](CCCNC(=N)N)C(=O)N[C@@H](Cc1ccccc1)C(=O)O)C(C)C)[C@@H](C)O | 2.34 | Active |  | 20 | 2.34 | 0 | 0 |  | Active |  | 4.69 | 1.17 |  |  | > 90 | 16 | 8 | 8 | Non-toxic | Non-toxic | fold change (FC) [19]: 8; Activity [22]: Active; fold change (FC) [23]: 16; Activity [25]: Active; fold change (FC) [26]: 16; Activity [27]: Dose-dependent-effect; Activity [28]: Active; Activity [29]: 40%; Activity [30]: Dose-dependent-effect; Activity [32]: Dose-dependent-effect
3 | CC[C@H](C)[C@H](NC(=O)[C@H](CCCNC(=N)N)NC(=O)[C@H](CO)NC(=O)[C@@H]1CSSC[C@H](N)C(=O)N[C@@H](Cc2ccccc2)C(=O)N[C@@H](CCCCN)C(=O)N[C@@H](CCCCN)C(=O)N[C@@H](C(C)C)C(=O)N[C@@H](CCCNC(=N)N)C(=O)N[C@@H](CCCCN)C(=O)N[C@@H](CCC(N)=O)C(=O)N[C@@H](CC(C)C)C(=O)NCC(=O)N[C@@H](CCCNC(=N)N)C(=O)N[C@@H](C(C)C)C(=O)N[C@@H](CC(C)C)C(=O)N[C@@H](CCCNC(=N)N)C(=O)N[C@@H](Cc2c[nH]cn2)C(=O)N1)C(=O)N[C@H](C(=O)N[C@H](C(=O)NCC(=O)NCC(=O)N[C@@H](CCCNC(=N)N)C(=O)N[C@@H](CCSC)C(=O)N[C@@H](CCCNC(=N)N)C(=O)N[C@@H](Cc1ccccc1)C(=O)O)C(C)C)[C@@H](C)O (H-CFKKVRKQLGRVLRHCSRITVGGRMRF-OH; disulfide 1-16) | 9.38 | Active |  | 20 | 18.8 | 100 | 0 | 74.3 | Active |  | 37.5 | 9.38 | 80 |  |  | 16 | 8 | 8 |  | Non-toxic | viability at 100 µg/mL [33]: > 80%; viability at 100 µg/mL [34]: > 80%; fold change (FC) [35]: 4; fold change (FC) [26]: 16; Activity [36]: Active; fold change (FC) [37]: 4; metabolised at 6 h [38]: 68%
4 | CC[C@H](C)[C@H](NC(=O)[C@H](CCCN)NC(=O)[C@H](CO)NC(=O)[C@H](Cc1c[nH]cn1)NC(=O)[C@H](CCCN)NC(=O)[C@H](CC(C)C)NC(=O)[C@@H](NC(=O)[C@H](CCCN)NC(=O)CNC(=O)[C@H](CC(C)C)NC(=O)[C@H](CCC(N)=O)NC(=O)[C@H](CCCN)NC(=O)[C@H](CCCN)NC(=O)[C@@H](NC(=O)[C@H](CCCN)NC(=O)[C@H](CCCN)NC(=O)[C@@H](N)Cc1ccccc1)C(C)C)C(C)C)C(=O)N[C@H](C(=O)N[C@H](C(=O)NCC(=O)NCC(=O)N[C@@H](CCCN)C(=O)N[C@@H](CCSC)C(=O)N[C@@H](CCCN)C(=O)N[C@@H](Cc1ccccc1)C(=O)O)C(C)C)[C@@H](C)O (H-F[Orn][Orn]V[Orn][Orn]QLG[Orn]VL[Orn]HS[Orn]ITVGG[Orn]M[Orn]F-OH) | 18.8 | Active | 100 | 20 | 75 | 0 | 0 | 50 | Active | < 60 | 18.8 | 37.5 |  | inactive | > 90 |  |  |  | Non-toxic | Non-toxic | Activity [39]: 24.6%; fold change (FC) [35]: 16; Activity [27]: Dose-dependent-effect; Activity [40]: Active; Activity [41]: 74.5%; fold change (FC) [37]: 16
